{
  "source": "BindingDB's records for PubMed 1352553",
  "about": "(University of North Carolina, 1992)",
  "key": {"[1]": {"target": "Adenosine kinase (Rattus norvegicus, UniProt Q64640)"}, "[2]": {"target": "5-hydroxytryptamine receptor 2A (Rattus norvegicus, UniProt P14842)", "sequence (P14842 whole entry)": "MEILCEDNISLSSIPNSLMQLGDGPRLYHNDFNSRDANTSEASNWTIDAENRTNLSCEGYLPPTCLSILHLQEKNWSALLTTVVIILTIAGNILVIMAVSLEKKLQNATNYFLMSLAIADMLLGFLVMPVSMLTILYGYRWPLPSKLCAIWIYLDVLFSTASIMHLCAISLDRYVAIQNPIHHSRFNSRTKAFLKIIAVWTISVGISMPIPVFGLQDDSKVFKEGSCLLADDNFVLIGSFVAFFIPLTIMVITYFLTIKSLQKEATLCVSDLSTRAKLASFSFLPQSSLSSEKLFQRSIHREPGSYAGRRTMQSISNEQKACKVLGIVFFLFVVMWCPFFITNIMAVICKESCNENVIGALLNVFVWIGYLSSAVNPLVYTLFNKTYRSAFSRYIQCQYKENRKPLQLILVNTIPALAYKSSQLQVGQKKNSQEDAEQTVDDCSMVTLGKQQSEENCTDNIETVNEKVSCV"}, "[3]": {"target": "Gamma-aminobutyric acid (GABA) B receptor 1 (Rattus norvegicus, UniProt Q6MFX8)", "sequence (Q6MFX8 whole entry)": "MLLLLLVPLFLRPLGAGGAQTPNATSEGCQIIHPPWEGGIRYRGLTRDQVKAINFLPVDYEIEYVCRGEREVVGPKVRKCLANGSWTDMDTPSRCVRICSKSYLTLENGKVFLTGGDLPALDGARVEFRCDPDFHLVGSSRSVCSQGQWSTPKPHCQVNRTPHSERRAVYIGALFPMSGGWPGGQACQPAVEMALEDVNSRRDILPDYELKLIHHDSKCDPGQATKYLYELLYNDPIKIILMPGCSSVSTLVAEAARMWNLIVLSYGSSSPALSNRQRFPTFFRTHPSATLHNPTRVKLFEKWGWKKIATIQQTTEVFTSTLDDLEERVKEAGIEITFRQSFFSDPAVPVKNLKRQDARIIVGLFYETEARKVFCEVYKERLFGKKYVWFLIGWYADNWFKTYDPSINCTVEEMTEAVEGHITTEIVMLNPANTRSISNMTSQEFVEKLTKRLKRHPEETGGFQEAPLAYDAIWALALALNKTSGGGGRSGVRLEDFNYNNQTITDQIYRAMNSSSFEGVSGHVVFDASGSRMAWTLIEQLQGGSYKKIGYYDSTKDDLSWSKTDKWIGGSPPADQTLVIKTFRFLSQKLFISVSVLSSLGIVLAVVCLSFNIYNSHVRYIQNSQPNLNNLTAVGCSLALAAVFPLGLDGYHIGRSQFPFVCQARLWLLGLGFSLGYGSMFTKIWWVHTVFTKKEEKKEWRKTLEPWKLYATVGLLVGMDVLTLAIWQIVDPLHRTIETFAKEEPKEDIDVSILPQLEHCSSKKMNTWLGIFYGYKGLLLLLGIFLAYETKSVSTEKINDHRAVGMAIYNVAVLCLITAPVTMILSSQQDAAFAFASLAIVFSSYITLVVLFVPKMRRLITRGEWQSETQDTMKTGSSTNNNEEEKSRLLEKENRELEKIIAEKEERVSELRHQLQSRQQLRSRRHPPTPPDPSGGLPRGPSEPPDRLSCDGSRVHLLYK"}, "[4]": {"target": "Alpha-1A adrenergic receptor (Rattus norvegicus, UniProt P43140)"}, "[5]": {"target": "5'-nucleotidase (Rattus norvegicus, UniProt P21588)"}, "[6]": {"target": "Gamma-aminobutyric acid receptor subunit alpha-1 (Rattus norvegicus, UniProt P62813)"}, "[7]": {"target": "Adenylate cyclase type 3 (Rattus norvegicus, UniProt P21932)"}, "[8]": {"target": "Alpha-2C adrenergic receptor (Rattus norvegicus, UniProt P22086)", "sequence (P22086 whole entry)": "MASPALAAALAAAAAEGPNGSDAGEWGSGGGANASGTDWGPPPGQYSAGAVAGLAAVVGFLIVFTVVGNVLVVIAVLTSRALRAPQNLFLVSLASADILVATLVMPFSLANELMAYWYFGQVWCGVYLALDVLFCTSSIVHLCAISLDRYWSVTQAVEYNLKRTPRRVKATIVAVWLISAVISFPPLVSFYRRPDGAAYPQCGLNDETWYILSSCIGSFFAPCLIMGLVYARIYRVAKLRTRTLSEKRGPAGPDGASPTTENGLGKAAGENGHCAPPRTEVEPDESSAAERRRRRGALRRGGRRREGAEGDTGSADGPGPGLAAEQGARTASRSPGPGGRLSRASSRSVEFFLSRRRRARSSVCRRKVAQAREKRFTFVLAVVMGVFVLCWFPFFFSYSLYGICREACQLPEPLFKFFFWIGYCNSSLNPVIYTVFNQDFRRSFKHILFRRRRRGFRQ"}, "[9]": {"target": "Natriuretic peptides A (Rattus norvegicus, UniProt P01161)", "sequence (P01161 whole entry)": "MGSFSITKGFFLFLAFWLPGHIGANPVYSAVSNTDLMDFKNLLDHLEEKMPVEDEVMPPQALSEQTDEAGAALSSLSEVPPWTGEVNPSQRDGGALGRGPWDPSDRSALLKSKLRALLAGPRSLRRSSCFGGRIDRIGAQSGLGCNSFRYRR"}, "[10]": {"target": "Angiotensinogen (Rattus norvegicus, UniProt P01015)", "sequence (P01015 whole entry)": "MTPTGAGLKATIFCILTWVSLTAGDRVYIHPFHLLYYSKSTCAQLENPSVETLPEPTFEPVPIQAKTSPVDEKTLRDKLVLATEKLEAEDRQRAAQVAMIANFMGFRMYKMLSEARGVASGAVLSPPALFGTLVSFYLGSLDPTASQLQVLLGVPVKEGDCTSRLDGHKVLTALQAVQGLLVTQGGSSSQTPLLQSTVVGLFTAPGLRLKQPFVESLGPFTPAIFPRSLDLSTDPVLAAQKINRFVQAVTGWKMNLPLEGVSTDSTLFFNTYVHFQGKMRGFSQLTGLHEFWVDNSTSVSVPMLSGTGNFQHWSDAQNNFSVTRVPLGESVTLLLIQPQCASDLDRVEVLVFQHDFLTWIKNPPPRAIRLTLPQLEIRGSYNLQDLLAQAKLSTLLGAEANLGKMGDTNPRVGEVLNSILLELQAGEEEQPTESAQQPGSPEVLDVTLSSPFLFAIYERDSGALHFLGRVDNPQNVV"}, "[11]": {"target": "Arginine vasopressin-induced protein 1 (Rattus norvegicus, UniProt Q8VDA6)"}, "[12]": {"target": "Bombesin receptor subtype-3 (Rattus norvegicus, UniProt Q8K418)", "sequence (Q8K418 whole entry)": "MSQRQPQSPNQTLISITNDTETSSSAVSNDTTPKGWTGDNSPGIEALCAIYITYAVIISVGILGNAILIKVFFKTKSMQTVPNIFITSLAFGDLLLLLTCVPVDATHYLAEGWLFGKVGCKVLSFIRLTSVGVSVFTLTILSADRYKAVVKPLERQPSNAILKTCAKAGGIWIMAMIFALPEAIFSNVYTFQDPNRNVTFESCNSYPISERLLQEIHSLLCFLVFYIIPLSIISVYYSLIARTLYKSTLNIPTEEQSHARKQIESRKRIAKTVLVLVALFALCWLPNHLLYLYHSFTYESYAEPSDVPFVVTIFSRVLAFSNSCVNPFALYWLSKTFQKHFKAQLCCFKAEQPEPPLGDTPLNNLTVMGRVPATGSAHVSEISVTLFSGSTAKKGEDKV"}, "[13]": {"target": "Voltage-dependent L-type calcium channel subunit alpha-1C (Rattus norvegicus, UniProt P22002)"}, "[14]": {"target": "Chloride channel protein 1 (Rattus norvegicus, UniProt P35524)", "sequence (P35524 whole entry)": "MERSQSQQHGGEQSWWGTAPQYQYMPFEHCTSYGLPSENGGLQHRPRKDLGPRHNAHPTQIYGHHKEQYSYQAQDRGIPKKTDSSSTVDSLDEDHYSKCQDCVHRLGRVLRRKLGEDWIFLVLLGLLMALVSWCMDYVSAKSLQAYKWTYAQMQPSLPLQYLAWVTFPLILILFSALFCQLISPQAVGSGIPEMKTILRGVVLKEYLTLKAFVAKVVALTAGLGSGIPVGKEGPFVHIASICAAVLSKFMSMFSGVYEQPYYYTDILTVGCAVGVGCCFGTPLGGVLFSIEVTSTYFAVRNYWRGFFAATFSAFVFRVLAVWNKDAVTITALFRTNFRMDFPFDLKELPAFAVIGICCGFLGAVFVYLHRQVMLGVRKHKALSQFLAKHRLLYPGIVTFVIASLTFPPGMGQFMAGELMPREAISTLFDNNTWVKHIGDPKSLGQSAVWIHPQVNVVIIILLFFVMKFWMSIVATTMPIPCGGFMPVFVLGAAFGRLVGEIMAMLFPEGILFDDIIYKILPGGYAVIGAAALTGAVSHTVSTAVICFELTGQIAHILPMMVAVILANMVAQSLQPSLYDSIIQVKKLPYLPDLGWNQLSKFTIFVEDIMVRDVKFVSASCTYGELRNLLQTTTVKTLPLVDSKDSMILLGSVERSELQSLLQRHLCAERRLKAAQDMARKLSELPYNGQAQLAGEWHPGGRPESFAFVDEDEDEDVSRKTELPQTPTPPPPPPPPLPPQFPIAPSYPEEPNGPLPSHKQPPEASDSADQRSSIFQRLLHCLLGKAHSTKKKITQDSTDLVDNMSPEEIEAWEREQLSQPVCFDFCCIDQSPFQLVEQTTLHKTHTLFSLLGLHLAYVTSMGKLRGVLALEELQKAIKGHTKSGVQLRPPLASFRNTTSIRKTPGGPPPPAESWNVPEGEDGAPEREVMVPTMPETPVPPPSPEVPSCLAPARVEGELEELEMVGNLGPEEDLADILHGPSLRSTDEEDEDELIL"}, "[15]": {"target": "Cholecystokinin receptor type A (Rattus norvegicus, UniProt P30551)"}, "[16]": {"target": "Pro-epidermal growth factor (Rattus norvegicus, UniProt P07522)"}, "[17]": {"target": "Glutamate receptor 3 (Rattus norvegicus, UniProt P19492)"}, "[18]": {"target": "Glutamate receptor ionotropic, kainate 1 (Rattus norvegicus, UniProt P22756)"}, "[19]": {"target": "Glutamate receptor ionotropic, NMDA 1 (Rattus norvegicus, UniProt P35439)"}, "[20]": {"target": "Glycine amidinotransferase, mitochondrial (Rattus norvegicus, UniProt P50442)"}, "[21]": {"target": "Phosphatidylinositol 3,4,5-trisphosphate 5-phosphatase 2 (Rattus norvegicus, UniProt Q9WVR3)"}, "[22]": {"target": "Interleukin-18 (Rattus norvegicus, UniProt P97636)"}, "[23]": {"target": "Beta-nerve growth factor (Rattus norvegicus, UniProt P25427)"}, "[24]": {"target": "Norepinephrine transporter (Rattus norvegicus, UniProt Q9JIA2)"}, "[25]": {"target": "Sigma non-opioid intracellular receptor 1 (Rattus norvegicus, UniProt Q9R0C9)"}, "[26]": {"target": "Potassium voltage-gated channel subfamily H member 8 (Rattus norvegicus, UniProt Q9QWS8)", "sequence (Q9QWS8 whole entry)": "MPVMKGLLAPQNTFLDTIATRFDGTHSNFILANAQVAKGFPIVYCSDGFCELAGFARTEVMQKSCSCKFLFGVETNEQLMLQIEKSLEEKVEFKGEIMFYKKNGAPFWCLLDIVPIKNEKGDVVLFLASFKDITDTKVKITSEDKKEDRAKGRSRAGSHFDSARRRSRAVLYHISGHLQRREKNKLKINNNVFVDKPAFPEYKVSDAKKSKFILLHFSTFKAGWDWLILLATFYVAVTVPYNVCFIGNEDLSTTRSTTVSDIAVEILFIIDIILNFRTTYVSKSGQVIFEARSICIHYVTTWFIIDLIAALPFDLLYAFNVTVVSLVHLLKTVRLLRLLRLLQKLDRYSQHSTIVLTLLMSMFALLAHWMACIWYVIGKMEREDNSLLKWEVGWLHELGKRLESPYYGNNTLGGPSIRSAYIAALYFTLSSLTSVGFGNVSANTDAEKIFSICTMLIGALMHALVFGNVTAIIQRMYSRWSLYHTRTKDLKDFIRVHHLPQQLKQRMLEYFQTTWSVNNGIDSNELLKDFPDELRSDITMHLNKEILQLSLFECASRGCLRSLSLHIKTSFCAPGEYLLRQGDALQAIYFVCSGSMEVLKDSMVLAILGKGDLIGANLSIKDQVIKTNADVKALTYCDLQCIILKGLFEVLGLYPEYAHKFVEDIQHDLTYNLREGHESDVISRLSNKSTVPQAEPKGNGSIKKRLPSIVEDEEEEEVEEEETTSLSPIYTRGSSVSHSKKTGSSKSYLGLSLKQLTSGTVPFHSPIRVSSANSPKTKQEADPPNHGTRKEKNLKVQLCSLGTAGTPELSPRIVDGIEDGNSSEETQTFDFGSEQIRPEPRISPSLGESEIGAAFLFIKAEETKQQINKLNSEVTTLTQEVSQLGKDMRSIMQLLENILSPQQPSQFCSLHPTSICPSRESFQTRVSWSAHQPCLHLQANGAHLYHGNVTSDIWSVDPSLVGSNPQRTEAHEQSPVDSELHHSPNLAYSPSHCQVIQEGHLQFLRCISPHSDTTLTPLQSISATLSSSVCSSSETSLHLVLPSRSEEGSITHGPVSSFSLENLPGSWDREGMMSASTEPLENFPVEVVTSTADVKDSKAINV"}, "[27]": {"target": "Somatostatin (Rattus norvegicus, UniProt P60042)"}, "[28]": {"target": "Protachykinin-1 (Rattus norvegicus, UniProt P06767)"}, "[29]": {"target": "VIP peptides (Rattus norvegicus, UniProt P01283)"}, "[30]": {"target": "Beta-2 adrenergic receptor (Rattus norvegicus, UniProt P10608)"}},
  "note": "Values joined by “and” are separate entries in the source; they are usually repeats but may differ in a detail not shown here. Equal values may be shown once.",
  "data": [
    {"smiles": "Oc1cc2c(cc1O)[C@@H]1c3ccccc3CN[C@@H]1CC2", "note": "[(+/-)-trans-10,11-dihydroxy-5,6,6a,7,8,12b-hexahydrobenzo[a]phenanthridine]", "values": [
      {"measurement": "Ki", "setting": "[1]", "value": "> 10", "unit": "µM"},
      {"measurement": "Ki", "setting": "[2]", "value": "> 10", "unit": "µM"},
      {"measurement": "Ki", "setting": "[3]", "value": "> 10", "unit": "µM"},
      {"measurement": "Ki", "setting": "[4]", "value": "> 10", "unit": "µM"},
      {"measurement": "Ki", "setting": "[5]", "value": "> 10", "unit": "µM"},
      {"measurement": "Ki", "setting": "[6]", "value": "> 10", "unit": "µM"},
      {"measurement": "Ki", "setting": "[7]", "value": "> 10", "unit": "µM"},
      {"measurement": "Ki", "setting": "[8]", "value": "0.23 µM and 1 µM"},
      {"measurement": "Ki", "setting": "[9]", "value": "> 10", "unit": "µM"},
      {"measurement": "Ki", "setting": "[10]", "value": "> 10", "unit": "µM"},
      {"measurement": "Ki", "setting": "[11]", "value": "> 10", "unit": "µM"},
      {"measurement": "Ki", "setting": "[12]", "value": "> 10", "unit": "µM"},
      {"measurement": "Ki", "setting": "[13]", "value": "> 10", "unit": "µM"},
      {"measurement": "Ki", "setting": "[14]", "value": "> 10", "unit": "µM"},
      {"measurement": "Ki", "setting": "[15]", "value": "> 10", "unit": "µM"},
      {"measurement": "Ki", "setting": "[16]", "value": "> 10", "unit": "µM"},
      {"measurement": "Ki", "setting": "[17]", "value": "> 10", "unit": "µM"},
      {"measurement": "Ki", "setting": "[18]", "value": "> 10", "unit": "µM"},
      {"measurement": "Ki", "setting": "[19]", "value": "> 10", "unit": "µM"},
      {"measurement": "Ki", "setting": "[20]", "value": "> 10", "unit": "µM"},
      {"measurement": "Ki", "setting": "[21]", "value": "> 10", "unit": "µM"},
      {"measurement": "Ki", "setting": "[22]", "value": "> 10", "unit": "µM"},
      {"measurement": "Ki", "setting": "[23]", "value": "> 10", "unit": "µM"},
      {"measurement": "Ki", "setting": "[24]", "value": "> 10", "unit": "µM"},
      {"measurement": "Ki", "setting": "[25]", "value": "> 10", "unit": "µM"},
      {"measurement": "Ki", "setting": "[26]", "value": "> 10", "unit": "µM"},
      {"measurement": "Ki", "setting": "[27]", "value": "> 10", "unit": "µM"},
      {"measurement": "Ki", "setting": "[28]", "value": "> 10", "unit": "µM"},
      {"measurement": "Ki", "setting": "[29]", "value": "> 10", "unit": "µM"},
      {"measurement": "Ki", "setting": "[30]", "value": "> 10", "unit": "µM"}
    ]}
  ]
}
